Data: patent US20050153412A1, “Aldehyde dehydrogenase II” (priority 2002, published 2005)
Read-outs that look alike come from different tables or passages of the source.

How the values were obtained:
Assay type in all cases: biochemical, Gluconobacter oxydans DSM No. 4025 (FERM BP-3812)
[1] = biological target: T1, SNDH II (aldehyde dehydrogenase) (Ketogulonicigenium vulgare, UniProt Q402A8); assay: Effect of inhibitors and metals on L-sorbosone dehydrogenase activity, photometrical DCIP assay
Experimental: (§1) The reaction mixture consisted of 0.1 mM DCIP, 1.0 mM PMS, 50 mM potassium phosphate buffer (pH 7.0), 1.0 μM PQQ, 2 to 100 mM substrate (L-sorbosone, D-glucosone, D-glucose, etc.) and enzyme solution in a final volume of 100 μl water, said reaction mixture was prepared just before the assay. The reaction was started at 25° C. with L-sorbosone, and the enzyme activity was measured as the initial reduction rate of DCIP at 600 nm. One unit of the enzyme activity was defined as the amount of the enzyme catalyzing the reduction of 1 μmol DCIP per minute. The extinction coefficient of DCIP at pH 7.0 was taken as 14.2 mM^−1. A reference cuvette contained all the above constituents except for L-sorbosone.
The effects of metal ions and inhibitors on the L-sorbosone dehydrogenase activity of the enzyme were examined by measuring the activity using the same assay method as described under 1b) above. Each compound solution was stirred into the basal reaction mixture and the reaction was started with the addition of the enzyme.
Each compound was added to the reaction mixture at a concentration of 1.0 mM, with the exception that the concentrations of EDTA, NaN3 and monoiodoacetate were 5.0 mM.

[2] = biological target: T1, SNDH II (aldehyde dehydrogenase); assay: Electron acceptor suitability for conversion of L-sorbosone; details: conversion of L-sorbosone to vitamin C and/or 2-KGA
From the text: This was affirmed by the failure of the enzyme to convert L-sorbosone to vitamin C and/or 2-KGA using oxygen as a possible electron acceptor. Furthermore, no oxygen consumption was detected in the reaction mixture as detected with a dissolved oxygen probe. […] However, other conventional electron acceptors can be utilized in conjunction with the enzyme of this invention. Preferred electron acceptors are phenazine methosulfate (PMS), 2,6-dichlorophenolindophenol (DCIP), ferricyanide and cytochrome c. There is no minimum amount of electron acceptors which must be present for at least some of the aldehyde substrate to be converted to its corresponding acid. However, the amount of substrate which can be oxidized depends on the amount of the particular electron acceptor and its electron accepting characteristics.

[3] = biological target: T1, SNDH II (aldehyde dehydrogenase); assay: Substrate specificity of the purified enzyme, photometrical DCIP assay; details: for Relative activity (%): L-sorbosone and D-glucosone 2 mM, other substrates 100 mM, L-sorbosone = 100; for Relative activity compared with that for L-sorbosone (2 mM): at both pH 7.5 and 9.0, D-glucosone 2 mM, others 100 mM; for Product (deduced product of the oxidation of the substrate): substrates of Table 1A
Experimental: as §1
a) The substrate specificity of the enzyme was determined using the same enzyme assay method as described under 1b) above with the exception of using 100 mM potassium phosphate (pH 7.5) or 100 mM Tris-HCl (pH 9.0) as buffer. The relative activity of SNDH II for D-glucosone (2 mM), D-glucose (100 mM), and D-xylose (100 mM) was higher than that for L-sorbosone (2 mM) at both pH 7.5 and 9.0. However, the relative activity for L-sorbose (100 mM), D-sorbitol (100 mM), and L-gulono-γ-lactone (100 mM) was lower than 1% of that for L-sorbosone at both pH 7.5 and 9.0.

[4] = compound at 1.0 mM, None = 100.0
[5] = pH 7.5, 100 mM potassium phosphate

T1 sequence (Q402A8 entry or part of it): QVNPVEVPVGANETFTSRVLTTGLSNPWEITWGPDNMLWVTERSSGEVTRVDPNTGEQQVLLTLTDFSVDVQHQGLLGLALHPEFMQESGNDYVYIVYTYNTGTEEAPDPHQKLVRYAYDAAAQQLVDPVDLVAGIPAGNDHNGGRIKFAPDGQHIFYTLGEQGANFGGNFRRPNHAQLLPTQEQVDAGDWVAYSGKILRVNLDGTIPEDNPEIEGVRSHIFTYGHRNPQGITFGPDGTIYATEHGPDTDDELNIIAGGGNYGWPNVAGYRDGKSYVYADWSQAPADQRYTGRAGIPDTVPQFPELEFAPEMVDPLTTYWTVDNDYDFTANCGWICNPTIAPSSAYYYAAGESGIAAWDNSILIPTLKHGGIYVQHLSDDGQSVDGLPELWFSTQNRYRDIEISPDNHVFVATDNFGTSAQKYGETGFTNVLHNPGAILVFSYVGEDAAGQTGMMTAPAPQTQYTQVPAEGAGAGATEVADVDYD

O=C(O)CN(CCN(CC(=O)O)CC(=O)O)CC(=O)O [EDTA]
Relative activity (%) [1]: 97.9%

NC(=O)c1ccc[n+]([C@@H]2O[C@H](COP(=O)([O-])OP(=O)(O)OC[C@H]3O[C@@H](n4cnc5c(N)ncnc54)[C@H](O)[C@@H]3O)[C@@H](O)[C@H]2O)c1 [NAD]
Suitability as electron acceptor [2]: not suitable electron acceptors

O.O.[Ca+2].[Cl-].[Cl-] [CaCl2.2H2O]
Relative activity (%) [1, 4]: 94.7%

O=O [oxygen]
Suitability as electron acceptor [2]: does not work

[Cl][Ti]([Cl])([Cl])[Cl] [TiCl4]
Relative activity (%) [1, 4]: 95.9%

O=C(CO)[C@@H](O)[C@H](O)[C@@H](O)CO [L-Sorbose]
Relative activity (%) [3, 5]: <1% | Relative activity (%) ([3]; pH 9.0, 100 mM Tris-HCl): <1%

O=CC(=O)[C@@H](O)[C@H](O)[C@H](O)CO [D-Glucosone]
Relative activity compared with that for L-sorbosone (2 mM) [3]: higher | Relative activity (%) [3, 5]: 483% | Product (deduced product of the oxidation of the substrate) [3]: D-iso-Ascorbic acid/2-Keto-D-gluconate

O.O.O.O.O.O.[Cl-].[Cl-].[Co+2] [CoCl2.6H2O]
Relative activity (%) [1, 4]: 60.8% | Effect on the enzyme activity ([1]; metal ions, 1.0 mM): inhibited

NC(=O)c1ccc[n+]([C@H]2O[C@@H](COP(=O)([O-])OP(=O)(O)OC[C@H]3O[C@@H](n4cnc5c(N)ncnc54)[C@H](OP(=O)(O)O)[C@@H]3O)[C@H](O)[C@@H]2O)c1 [NADP]
Suitability as electron acceptor [2]: not suitable electron acceptors

O=S(=O)([O-])[O-].O=S(=O)([O-])[O-].O=S(=O)([O-])[O-].[Fe+3].[Fe+3] [Fe2(SO4)3.xH2O]
Relative activity (%) [1, 4]: 73.2% | Effect on the enzyme activity ([1]; metal ions, 1.0 mM): inhibited

O=C[C@H](O)[C@@H](O)[C@H](O)[C@H](O)CO [D-Glucose]
Relative activity compared with that for L-sorbosone (2 mM) [3]: higher | Product (deduced product of the oxidation of the substrate) [3]: D-Gluconate

O=S(=O)([O-])[O-].[Cu+2] [CuSO4]
Relative activity (%) [1, 4]: <1% | Effect on the enzyme activity ([1]; metal ions, 1.0 mM): inhibited

[N-]=[N+]=[N-].[Na+] [NaN3]
Relative activity (%) ([1]; compound at 5.0 mM, None = 100.0): 98.4%

[Cl-].[Cl-].[Zn+2] [ZnCl2]
Relative activity (%) [1, 4]: 64.9% | Effect on the enzyme activity ([1]; metal ions, 1.0 mM): inhibited

O.O.O.O.O.O.O=S(=O)([O-])[O-].[Ni+2] [NiSO4.6H2O]
Relative activity (%) [1, 4]: 82.9% | Effect on the enzyme activity ([1]; metal ions, 1.0 mM): inhibited

[Cl-].[Cl-].[Mg+2] [MgCl2]
Relative activity (%) [1, 4]: 88.5%

O=CC(=O)[C@@H](O)[C@H](O)[C@@H](O)CO [L-Sorbosone]
Relative activity (%) [3, 5]: 100% | Relative activity (%) ([3]; pH 9.0, 100 mM Tris-HCl): 100% | Product (deduced product of the oxidation of the substrate) [3]: Vitamin C/2-KGA

O=C1O[C@H]([C@@H](O)CO)[C@H](O)[C@@H]1O [L-Gulono-γ-lactone]
Relative activity (%) [3, 5]: <1% | Relative activity (%) ([3]; pH 9.0, 100 mM Tris-HCl): <1%

O=C[C@H](O)[C@@H](O)[C@H](O)CO [D-Xylose]
Relative activity compared with that for L-sorbosone (2 mM) [3]: higher | Product (deduced product of the oxidation of the substrate) [3]: D-Xylonic acid

O=C(O)CI [Monoiodoacetate]
Effect on the enzyme activity [1]: strongly inhibited | Relative activity (%) [1]: 34.7%

OC[C@@H](O)[C@@H](O)[C@H](O)[C@@H](O)CO [D-Sorbitol]
Relative activity (%) [3, 5]: <1% | Relative activity (%) ([3]; pH 9.0, 100 mM Tris-HCl): <1%
